Among the data in ChEMBL document CHEMBL1148616, “Synthesis and structure-activity relationships of novel poly(ADP-ribose) polymerase-1 inhibitors” (Bioorg Med Chem Lett, 2006) are IC50 values, retold here.

This test concerns the target Poly [ADP-ribose] polymerase 1 (Homo sapiens, UniProt P09874).

Chain of Poly [ADP-ribose] polymerase 1 (P09874 whole entry): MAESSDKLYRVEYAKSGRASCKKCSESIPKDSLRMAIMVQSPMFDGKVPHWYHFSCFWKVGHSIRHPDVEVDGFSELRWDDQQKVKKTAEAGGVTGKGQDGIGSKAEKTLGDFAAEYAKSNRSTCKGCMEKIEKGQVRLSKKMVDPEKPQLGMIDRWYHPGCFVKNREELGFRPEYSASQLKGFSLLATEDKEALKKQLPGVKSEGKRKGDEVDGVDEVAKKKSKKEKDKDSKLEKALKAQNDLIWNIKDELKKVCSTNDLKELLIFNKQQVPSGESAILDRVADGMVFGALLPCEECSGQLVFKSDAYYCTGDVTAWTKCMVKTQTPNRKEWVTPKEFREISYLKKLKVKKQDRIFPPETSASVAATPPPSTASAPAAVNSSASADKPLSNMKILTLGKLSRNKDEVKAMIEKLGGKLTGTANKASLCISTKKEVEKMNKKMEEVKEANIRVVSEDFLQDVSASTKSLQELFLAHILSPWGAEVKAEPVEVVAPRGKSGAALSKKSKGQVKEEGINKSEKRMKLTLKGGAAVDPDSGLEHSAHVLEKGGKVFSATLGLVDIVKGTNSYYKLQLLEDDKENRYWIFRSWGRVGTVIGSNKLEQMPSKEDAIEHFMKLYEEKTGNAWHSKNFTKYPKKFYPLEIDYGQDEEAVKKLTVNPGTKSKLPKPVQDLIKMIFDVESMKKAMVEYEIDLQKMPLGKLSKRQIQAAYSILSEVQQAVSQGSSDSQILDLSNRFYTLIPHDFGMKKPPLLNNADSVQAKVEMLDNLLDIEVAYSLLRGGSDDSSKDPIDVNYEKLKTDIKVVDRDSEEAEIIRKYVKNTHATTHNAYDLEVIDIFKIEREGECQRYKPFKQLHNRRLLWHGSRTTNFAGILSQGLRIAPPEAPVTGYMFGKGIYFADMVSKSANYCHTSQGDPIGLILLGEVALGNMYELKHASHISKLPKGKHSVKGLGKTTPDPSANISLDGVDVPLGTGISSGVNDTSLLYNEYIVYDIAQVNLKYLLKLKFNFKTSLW
Description: Inhibitory activity against human PARP1 expressed in PC12 cells

`O=C1NC(=O)c2c1c1c(c3sc4ccccc4c23)CCC1` came in with an IC50 above 10 µM.

`Nc1ccc2c3c(cccc13)C(=O)NC2=O`: the IC50 amounted to 0.026 µM. The compound `O=C1NC(=O)c2c1c1c(c3oc4ccccc4c23)CCC1` registered a concentration for half-maximal inhibition (IC50) above 10 µM. As for `CCCc1c2c(c3c([nH]c4ccccc43)c1CC)C(=O)NC2=O`, the half-maximal inhibitory concentration (IC50) is above 10 µM. For `O=C1NC(=O)c2c1c1ccccc1c1[nH]c3ccccc3c21` the value was above 10 µM.
